“Also recorded” adds a separate entry of the source.
Columns and labels:
MDA-MB-231 [1] = test: Migration (wound healing) assay; type: cell-based; settings: for IC50: 24 hours of treatment, 5 concentrations, two independent experiments, read-out: Migratory IC50 MDA-MB-231; for activity at 5 µM: 24 hours post treatment, control = 100, Mean ± SEM (N = 2 × 2), read-out: % migration
Description: MDA-MB-231 cells were seeded in 12-wells plates at a concentration of 500,000 cells/well and were incubated in complete RPMI culture medium until covering the well and reaching around 90-100% confluency. Following, cells were serum starved for 4 hours and a 200 μl pipette tip was used to create the scratch followed by cell washing with PBS twice. […] Microscopic pictures were then taken, and cell migration was quantified based on the wound diameter at 24 hours minus the initial diameter at time zero, as represented by the following equation: % Migration=[…]

MDA-MB-468 [2] = test: Soft agar colony formation assay; type: cell-based; settings: for less colonies as compared to untreated: 5 and 10 μM, 14 days post treatment
MDA-MB-231 [3] = test: Soft agar colony formation assay; type: cell-based; settings: for less colonies as compared to untreated: 5 and 10 μM, 21 days post treatment; for colony formation (in words): MDA-MB-231, soft agar
MCF-7 [4] = test: Soft agar colony formation assay; type: cell-based; settings: for less colonies as compared to untreated: 5 and 10 μM, 14 days post treatment; for colony formation (in words): MCF-7, soft agar
MDA-MB-231 [5] = test: Cell cycle analysis (flow cytometry); type: cell-based; settings: 48 hours
Description: (§1) The MDA-MB-231, MDA-MB-468 and MCF-7 cell lines were seeded on 6-well plates at a concentration of 200,000 cells per well and were maintained in culture supplemented with 10% fetal bovine serum for 8-10 hours. The same day, media was removed and cells were incubated overnight with serum free media. Second day, cells were treated with the compounds. Adherent and floating cell populations were harvested at 48 hours after treatment with different concentrations of the compounds and counted.
(§2) Afterward, cells were washed with cold PBS once, centrifuged at 4° C. and fixed with 1.5 ml cold 70% ethanol added drop wise while slowly vortexing. Samples were then stored at […] Following fixation, cells were pelleted and washed with ice-cold PBS. Equal aliquots were collected and resuspended in 300 μl of Tali® Cell Cycle Kit and incubated at 37 C. with slow shaking speed for 30 minutes in the dark. Accuri C6 flow cytometer (BD Biosciences, USA) was used to analyze the cells. The FlowJo V10 software was used to process and evaluate the results.

MDA-MB-468 [6] = test: Cell cycle analysis (flow cytometry); type: cell-based; settings: 48 hours
Description: as §1, §2

MCF-7 [7] = test: Cell cycle analysis (flow cytometry); type: cell-based; settings: 48 h; 10 μM of compound 13, 5 μM of compound 14
Description: as §1, §2

MDA-MB-231 [8] = test: Matrigel invasion assay; type: cell-based; settings: 24 hours; 13 (10 μM), 14 (5 μM)
Description: (§3) Matrigel-coated invasion chamber plates (CORNING, USA) were used to study the invasive property of MDA-MB-231, MDA-MB-468 and MCF-7 cancer cells. Cells were seeded at a concentration of 5×10^4 cells/0.5 ml in each upper chamber well and maintained in RPMI serum free medium. Complete RPMI medium with 10% FBS was added to each base well at 600 μl/well to act as an attractant to the cells in the upper chamber. After 24 hours, cells were fixed using a 3.70% formaldehyde as a fixator for 5 minutes. […] Thereafter, cells were stained using 5% crystal violet dissolved in ethanol and were incubated for 5 minutes followed by several rounds of washing with PBS. Cells were then visualized under the microscope and 4 pictures/well were taken from different zones. ImageJ software was used to quantify the number of invaded cells in each well.

MDA-MB-468 [9] = test: Matrigel invasion assay; type: cell-based; settings: 24 hours; 13 (10 μM), 14 (5 μM)
Description: as §3

MCF-7 [10] = test: Matrigel invasion assay; type: cell-based; settings: 24 hours; 13 (10 μM), 14 (5 μM)
Description: as §3

HNME-E6/E7 = test: MTT cell viability on immortalized normal mammary epithelial cells; type: cell-based, human; settings: normal cell line; 48 hours of treatment; Mean ± SEM (n = 3 × 3)
Source text: (§4) Breast cancer cell lines including MDA-MB-231, MDA-MB-468, MCF-7, BT-474 and SK-BR-3 were obtained from the American Type Tissue Culture (ATCC) and maintained in complete cell culture media Gibco® RPMI 1640 (Thermo Fisher Scientific, USA) supplemented with 10% fetal bovine serum (PAN-Biotech, Aidenbach, Bavaria, Germany) and 1% penicillin/streptomycin (1×) antibiotics (Thermo Fisher Scientific, USA). Human normal mammary epithelial cells immortalized by E6/E7 of HPV type 16 (HNME-E6/E7) were used to predict potential safety of the compounds (125, 126). They were maintained in Gibco® Keratinocyte-SFM (1×) media. All cells were incubated in 5% CO2 at 37° C. incubator. Cells were maintained by routine sub-culturing in T-75 and T25 filtered tissue culture flasks.
(§5) MDA-MB-231, MDA-MB-468, MCF-7, BT-474 and HNME-E6/E7 cells were seeded overnight in 96-well plates at a concentration of 8000-10,000/well depending on their pre-calculated cell density and were incubated overnight. At 24 hours, media was replaced with fresh one. The treatment wells included 6-8 different concentrations of the compounds ranging between 0.25 μM-160 μM. […] Absorbance was recorded at a wavelength of 562 nm after 3 minutes of shaking using Infinite 200 PRO Microplate Reader (Tecan, Switzerland). Percentage of viable cells was calculated using the following formula: […]

[11] = test system: TNBC (MDA-MB-231 and MDA-MB-231) and estrogen positive (MCF-7 and BT-474) cell lines; test: MTT cell viability, breast cancer cell line panel (summary statements); type: cell-based
Source text: as §4, §5

MDA-MB-231 [12] = test: MTT cell viability; type: cell-based; settings: for IC50: Homo sapiens, MDA-MB-231, 48 hours of treatment, Mean ± SEM (n = 3 × 3); for SI of HNME/MDA-231 (selective index): ratio of LD50 on HNME-E6/E7 to IC50 on MDA-MB-231
Source text: as §4
(§6) MDA-MB-231, MDA-MB-468, MCF-7, BT-474 and HNME-E6/E7 cells were seeded overnight in 96-well plates at a concentration of 8000-10,000/well depending on their pre-calculated cell density and were incubated overnight. At 24 hours, media was replaced with fresh one. The treatment wells included 6-8 different concentrations of the compounds ranging between 0.25 μM-160 μM. At 48 hours post treatment, 10 μL MTT solution was added to each well followed by 4 hours of incubation. Afterwards, media with MTT was removed from all wells and 50 μl DMSO was added to each well to dissolve the crystals. This was followed by 5 minutes incubation. Absorbance was recorded at a wavelength of 562 nm after 3 minutes of shaking using Infinite 200 PRO Microplate Reader (Tecan, Switzerland). Percentage of viable cells was calculated using the following formula: […]

MDA-MB-468 [13] = test: MTT cell viability; type: cell-based; settings: for IC50: Homo sapiens, MDA-MB-468, 48 hours of treatment, Mean ± SEM (n = 3 × 3); for SI of HNME/MDA-468 (selective index): ratio of LD50 on HNME-E6/E7 to IC50 on MDA-MB-468
Source text: as §4, §6

MCF-7 [14] = test: MTT cell viability; type: cell-based; settings: for IC50: Homo sapiens, MCF7, 48 hours of treatment, Mean ± SEM (n = 3 × 3); for SI of HNME/MCF-7 (selective index): ratio of LD50 on HNME-E6/E7 to IC50 on MCF-7
Source text: as §4, §6

| Compound | IC50 (MDA-MB-231 [1]; Homo sapiens, MDA-MB-231, 24 h) [µM] | activity at 5 µM (MDA-MB-231 [1]; Homo sapiens, MDA-MB-231, 5 μM) [%] | less colonies as compared to untreated (MDA-MB-468 [2]) [%] | less colonies as compared to untreated (MDA-MB-231 [3]) [%] | colony formation (in words) (MDA-MB-231 [3]) | less colonies as compared to untreated (MCF-7 [4]) [%] | colony formation (in words) (MCF-7 [4]) | cell cycle arrest (in words) (MCF-7 [7]) | reduction of cancer cells invasion vs DMSO control (MDA-MB-231 [8]) [%] | reduction of cancer cells invasion vs DMSO control (MDA-MB-468 [9]) [%] | reduction of cancer cells invasion vs DMSO control (MCF-7 [10]) [%] | LD50 HNME-E6/E7 (HNME-E6/E7) [µM] | IC50 (MDA-MB-231 [12]) [µM] | SI of HNME/MDA-231 (selective index) (MDA-MB-231 [12]) | IC50 (MDA-MB-468 [13]) [µM] | SI of HNME/MDA-468 (selective index) (MDA-MB-468 [13]) | IC50 (MCF-7 [14]) [µM] | SI of HNME/MCF-7 (selective index) (MCF-7 [14]) | further results |
| --- | --- | --- | --- | --- | --- | --- | --- | --- | --- | --- | --- | --- | --- | --- | --- | --- | --- | --- | --- |
| CS(=O)(=O)c1ccc(C(=O)/C=C/c2ccc(N(CCCl)CCCl)cc2)cc1 [Compound 13, (E)-3-(4-(Bis(2-chloroethyl)amino)phenyl)-1-(4-(methylsulfonyl)phenyl) prop-2-en-1-one] | 5.71 ± 0.57 | 59.5 ± 2.75 | ~100 | ~100 | better effects on MDA-MB-231 as compared to colchicine and paclitaxel | ~100 | better effects on MCF-7 as compared to colchicine | mainly noticed in the invasive cell lines but not in the noninvasive, MCF-7, cells | 79.57 | 48.45 | 45.70 | 32.32 ± 3.93 | 9.67 ± 0.68 | 3.34 | 9.29 ± 0.68 | 3.48 | 8.95 ± 1.46 | 3.61 | cell cycle arrest at the S phase (cells percentage) (MDA-MB-231 [5]; 10 μM of compound 13): 28.7±1.87%; cell cycle arrest at the S phase (cells percentage) (MDA-MB-468 [6]; 10 μM of compound 13): 46.8±5.39%; selectivity, approximately similar between different breast cancer cell lines ([11]; versus HNME-E6/E7 normal cells): ~3 |
| COc1cccc(C(=O)/C=C/c2ccc(N(CCCl)CCCl)cc2)c1 [Compound 14, (E)-3-(4-(Bis(2-chloroethyl)amino)phenyl)-1-(3-methoxyphenyl) prop-2-en-1-one] | 2.86 ± 0.2 | 32.11 ± 0.17 | ~100 | ~100 | completely inhibited; also recorded: better effects on MDA-MB-231 as compared to colchicine and paclitaxel | ~100 | completely inhibited; also recorded: better effects on MCF-7 as compared to colchicine | mainly noticed in the invasive cell lines but not in the noninvasive, MCF-7, cells | 82.54 | 59.28 | 57.26 | 20.67 ± 1.50 | 6.3 ± 0.78 | 3.2 | 8.73 ± 0.67 | 2.36 | 3.96 ± 1.87 | 5.22 | IC50 (MDA-MB-231 [1]): 2.86 ± 0.197 µM; inhibition at 5 µM (MDA-MB-231 [1]; Homo sapiens, MDA-MB-231, 5 μM, 24 hours, read-out: inhibition of cell migration): 67.89 ± 0.17%; colony formation (in words) (MDA-MB-468 [2]; MDA-MB-468, soft agar): completely inhibited; cells arrested at the G2/M phase (cells percentage) (MDA-MB-231 [5]; 5 μM of compound 14): 47.27±7.869%; cells arrested at the G2/M phase (cells percentage) (MDA-MB-468 [6]; 5 μM of compound 14): 66.45±4.25%; IC50 ([11]; TNBC and estrogen positive cell lines, read-out: anti-proliferative IC50 values, range over cell lines): 3.94 to 9.22 µM |

From patent US12428405B2, “Chalcone-based chemotherapeutic compound for triple negative breast cancer” (QATAR UNIVERSITY, priority 2019, dated 2025)
